# Results taken from patent US20110015371A1 (Vertex Pharmaceuticals Incorporated, priority 1994, published 2011).
# Non-standard residues stand in square brackets, D forms with d. Residues, ends and D or L forms follow the SMILES beside them. Pip = O=C(O)[C@@H]1CCCCN1
# Columns and labels:
# [1] = test system: Human Peripheral Blood Mononuclear Cells (PBMC) or Enriched Adherent Mononuclear Cells; assay: Cell assay: IL-1β assay with human PBMC or enriched adherent mononuclear cells; assay type: cell-based; conditions: Homo sapiens, PBMC, LPS-stimulated cells, mature IL-1β in supernatant by ELISA
# How it was run: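 Human PBMC (suspension at 6×10^6 cells/ml) or adherent monocytes enriched by 1 h plating (2.5−3.0×10^5 cells/well) were stimulated with 5 ng/ml LPS (final) plus compound (5-6 dilutions, 0.1% DMSO final) for 16-18 hr at 37° C. Mature IL-1β in supernatants quantified by ELISA; duplicate cultures, duplicate ELISAs.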
# ICE [2] = target: T1, ICE (Homo sapiens, UniProt P29466); assay: Enzyme assay with UV-visible substrate (Succinyl-Tyr-Val-Ala-Asp-pNitroanilide); assay type: biochemical
# T1 sequence (P29466 120-297 limits assumed): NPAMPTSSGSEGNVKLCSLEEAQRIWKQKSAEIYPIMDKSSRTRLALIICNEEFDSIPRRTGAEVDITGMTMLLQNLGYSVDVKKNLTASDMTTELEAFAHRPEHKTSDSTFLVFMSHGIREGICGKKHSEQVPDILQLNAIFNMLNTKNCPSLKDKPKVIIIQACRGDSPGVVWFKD
# T1 sequence (P29466 317-404 limits assumed): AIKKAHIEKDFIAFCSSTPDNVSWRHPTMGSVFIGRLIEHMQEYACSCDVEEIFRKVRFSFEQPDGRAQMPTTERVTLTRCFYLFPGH
# How it was run: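 Colorimetric caspase-1 assay: rate of chromophore release from the pNA-tetrapeptide substrate monitored at 37° C for 20 minutes at 405-603 nm, after 15 min room-temperature enzyme–inhibitor preincubation. Ki values and competitive/uncompetitive/noncompetitive mode obtained by kinetic-equation fitting of rates across inhibitor concentrations.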
# ICE [3] = target: T1, ICE; assay: Enzyme assay with fluorescent substrate (Acetyl-Tyr-Val-Ala-Asp-AMC); assay type: biochemical; conditions: Example 2 table, read-out: Fluorescence Ki
# Description: 2. Enzyme Assay with Fluorescent Substrate
# This assay is run essentially according to Thornberry et al. (Nature 356: 768-774 (1992)), using substrate 17 referenced in that article. The substrate is: Acetyl-Tyr-Val-Ala-Asp-amino-4-methylcoumarin (AMC). The following components are mixed:
# The assay is run in a 96 well microtiter plate. Buffer and ICE are added to the wells. The components are left to incubate at 37° C. for 15 minutes in a temperature-controlled wellplate. After the 15 minute incubation, the reaction is started by adding substrate directly to the wells and the reaction is monitored @37° C. for 30 minutes by following the release of the AMC fluorophore using an excitation wavelength for 380 nm and an emission wavelength of 460 nm. A linear fit of the data for each well is performed and a rate is determined in fluorescence units per second.
# For determination of enzyme inhibition constants (Ki) or the mode of inhibition (competitive, uncompetitive or noncompetitive), the rate data determined in the enzyme assays at varying inhibitor concentrations are computer-fit to standard enzyme kinetic equations (see I. H. Segel, Enzyme Kinetics, Wiley-Interscience, 1975).
melting point,Ki (ICE [2]; Example 4 table),Ki (ICE [2]; Example 6 table),SMILES,IC50 ([1]; Example 6 table),IC50 ([1]; Example 2 table),Ki (ICE [3]),Ki (ICE [2]; Example 2 table)
84 to 86 °C,85 nM,–,"O=C[C@H](CC(=O)O)NC(=O)Cn1c(Cc2ccccc2)ccc(NC(=O)OCCc2ccccc2)c1=O [Compound 54k, 3(S)3-(6-Benzyl-1,2-dihydro-2-oxo-3-(2-phenylethoxy)carbonylamino-1-pyridyl)acetylamino-4-oxobutanoic acid]",6600 nM,–,–,–
76 to 80 °C,–,60 nM,"O=C(O)C[C@H](NC(=O)[C@@H]1CCCN2C(=O)CC[C@H](NC(=O)CCc3ccccc3)C(=O)N12)C(=O)CSCc1ccccc1Cl [Compound 125b, [3S(1S,9S)]-3-(6,10-dioxo-1,2,3,4,7,8,9,10-octahydro)-9-(3-phenylpropionyl-amino)-6H-pyridazine[1,2-a][1,2]diazepine-1-carboxamido-5-(2-chlorophenyl-methylthio)-4-oxopentanoic acid]",300 nM,–,–,–
–,–,–,"CC(=O)N[C@@H](Cc1ccc(O)cc1)C(=O)N[C@H](C(=O)N1CCCC[C@H]1C(=O)N[C@H](C=O)CC(=O)O)C(C)C [H, N-(N-Acetyl-tyrosinyl-valinyl-pipecolyl)-3-amino-4-oxobutanoic acid] (Ac-YV[Pip]D-aldehyde)",–,6000 to 11000 nM,4.7 nM,23 nM
